Experimental data published in US20260315464A1, “COMPOSITIONS, METHODS, AND SYSTEMS FOR MODULATING SPLICING OF MSH3” (REVIR THERAPEUTICS, INC., priority 2023, published 2026).

Experiments:
Format in all cases: cell-based
MSH3 Exon 21A = test: Splicing and RNA expression changes, poison exon 21A (FIGS. 6-8); settings: FIG. 8; for total RNA: e.g., due to NMD
Description: (§1) Poison exons were identified in endogenous MSH3 genome by employing a proprietary bioinformatics pipeline screening for cryptic exons in combination with examining poison exon candidates that could be regulated by an agent described herein or by nonsense mediated decay (NMD) using cycloheximide. FIG. 6 and FIG. 7 illustrate identification of Exon 21A, but not Exon 21B, as a poison exon that could be regulated by the agent described herein. FIG. 8 and FIG. 9 illustrate mutations that can be introduced into the poison exon (Exon 21A and Exon 14A_1 or Exon 14A_2, respectively), where the mutated nucleotide bases (e.g., CAG) could further enhance the suppression of the MSH3 expression. Such mutations can be utilized as a method or a system for screening additional candidate agents. FIG. 8 illustrates splicing and RNA expression changes for targets regulated by an agent described herein. […] FIG. 8 also illustrates how mutating a poison exon (e.g., from ATA to CAG) increased percentage of splice inclusion of Exon 21A from 0.13 to 0.98. Such mutations can be useful for designing a method or a system for screening additional agents for modulating splicing in of poison exon into a mRNA (e.g., as shown in FIG. 10). FIG. 9 illustrates splicing and RNA expression changes for targets regulated by an agent described herein. […] FIG. 9 also illustrates how mutating the poison exon (e.g., from TGA to CAG) increased percentage of splice inclusion of Exon 14A_1 from 0.00 to 0.59. Such mutations can be useful for designing a method or a system for screening additional agents for modulating splicing in of poison exon into a mRNA (e.g., as shown in FIG. 10). […] FIG. 10A illustrates engineered minigene donor (e.g., by mutating endogenous trinucleotides to CAG as shown in FIG. 8 and FIG. 9) for driving expression of a luciferase reporter gene. FIG. 10B illustrates minigene PCR showing the presence of the poison exon comprising the CAG mutation. […] FIG. 10C illustrates increased luciferase signal generated by the presence of the minigene comprising the poison exon comprising the CAG mutation.

[1] = tested on: MSH3 Exon 14A_1 or Exon 14A_2; test: Splicing and RNA expression changes, poison exon 14A_1 or 14A_2 (FIG. 9); settings: for total RNA: e.g., due to NMD
Description: as §1

MSH3 = test: QPCR assay for levels of MSH3 upon compound treatment in HEK293T or AD293 cells (fold-change of MSH3 transcript, EC50 of MSH3 downregulation; total MSH3 exons 13/14, exons 20/21; Table 8); settings: for mrna remaining at 1 µM / mrna remaining at 10 µM: Homo sapiens, fold-change of the MSH3 transcript, normalized to GAPDH; for mrna remaining at 1 µM: 1 μM compound; for mrna remaining at 10 µM: 10 μM compound
Outline: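 HEK293T or AD293 cells were treated at 1 μM and […]; RNA-to-cDNA qPCR used TaqMan assays for total MSH3 (exons 13/14, exons 20/21) and poison-exon junctions exon 13/PE14A and exon 20/PE21A. Transcript levels were normalized to GAPDH.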

SMILES	mrna remaining at 1 µM (MSH3)	mrna remaining at 10 µM (MSH3)	further results
C[C@@H]1C[C@@H]([C@H](O)CC2CC(=O)NC(=O)C2)C(=O)[C@@H](C)C1 [CHX, cycloheximide, reference compound]	–	–	poison exon expression (Exon 21A) (MSH3 Exon 21A): increased poison exon expression; total RNA (MSH3 Exon 21A): decreased total RNA; poison exon expression (Exon 14A_1 or Exon 14A_2) [1]: increased poison exon expression; total RNA [1]: decreased total RNA
CN(c1ccc(N2Cc3cnc(-c4cnn(C)c4)cc3C2=O)nn1)C1CCNCC1 [Compound 1, 2-(6-(methyl(piperidin-4-yl)amino)pyridazin-3-yl)-6-(1-methyl-1H-pyrazol-4-yl)-2,3-dihydro-1H-pyrrolo[3,4-c]pyridin-1-one]	–	–	poison exon expression (Exon 21A) (MSH3 Exon 21A): increased poison exon expression; total RNA (MSH3 Exon 21A): decreased total RNA; poison exon expression (Exon 14A_1 or Exon 14A_2) [1]: increased poison exon expression; total RNA [1]: decreased total RNA
Cc1nn(C)nc1-c1cc(F)c2c(c1)C(=O)N(c1ccc(N3CCC(N(C)C)CC3)nn1)C2 [Compound 672, 6-(2,5-dimethyl-2H-1,2,3-triazol-4-yl)-2-(6-(4-(dimethylamino)piperidin-1-yl)pyridazin-3-yl)-4-fluoroisoindolin-1-one]	95%	74%	–
CN(c1ccc(N2Cc3c(F)cc(-n4nccn4)cc3C2=O)nn1)[C@H]1C[C@]2(C)CC[C@](C)(C1)N2 [Compound 673, 2-(6-(((1R,3s,5S)-1,5-dimethyl-8-azabicyclo[3.2.1]octan-3-yl)(methyl)amino)pyridazin-3-yl)-4-fluoro-6-(2H-1,2,3-triazol-2-yl)isoindolin-1-one]	91%	33%	–
Cc1nn(C)nc1-c1cc(F)c2c(c1)C(=O)N(c1ccc(N3C[C@@H](C)NC[C@@H]3C)nn1)C2 [Compound 674, 6-(2,5-dimethyl-2H-1,2,3-triazol-4-yl)-2-(6-((2S,5R)-2,5-dimethylpiperazin-1-yl)pyridazin-3-yl)-4-fluoroisoindolin-1-one]	98%	49%	–
Cc1nn(C)nc1-c1cc(C#N)c2c(c1)C(=O)N(c1ccc(N(C)[C@H]3C[C@]4(C)CC[C@](C)(C3)N4)nn1)C2 [Compound 676, 6-(2,5-dimethyl-2H-1,2,3-triazol-4-yl)-2-(6-(((1R,3s,5S)-1,5-dimethyl-8-azabicyclo[3.2.1]octan-3-yl)(methyl)amino)pyridazin-3-yl)-1-oxoisoindoline-4-carbonitrile]	48%	17%	–
CN(c1ccc(N2Cc3c(Cl)cc(-c4nn(C)nc4Cl)cc3C2=O)nn1)[C@H]1C[C@]2(C)CC[C@](C)(C1)N2 [Compound 679, 4-chloro-6-(5-chloro-2-methyl-2H-1,2,3-triazol-4-yl)-2-(6-(((1R,3s,5S)-1,5-dimethyl-8-azabicyclo[3.2.1]octan-3-yl)(methyl)amino)pyridazin-3-yl)isoindolin-1-one]	95%	34%	–
Cn1nc(Cl)c(-c2cc(C#N)c3c(c2)C(=O)N(c2ccc(OC4CC(C)(C)NC(C)(C)C4)nn2)C3)n1 [Compound 680, 6-(5-chloro-2-methyl-2H-1,2,3-triazol-4-yl)-1-oxo-2-(6-((2,2,6,6-tetramethylpiperidin-4-yl)oxy)pyridazin-3-yl)isoindoline-4-carbonitrile]	94%	31%	–
Cc1nn(C)nc1-c1cc(C#N)c2c(c1)C(=O)N(c1ccc(O[C@H]3C[C@]4(C)CC[C@](C)(C3)N4)nn1)C2 [Compound 681, 6-(2,5-dimethyl-2H-1,2,3-triazol-4-yl)-2-(6-(((1R,3s,5S)-1,5-dimethyl-8-azabicyclo[3.2.1]octan-3-yl)oxy)pyridazin-3-yl)-1-oxoisoindoline-4-carbonitrile]	76%	8%	–
CN(c1ccc(N2Cc3c(C#N)cc(-c4nn(C)nc4Cl)cc3C2=O)nn1)C1CC(C)(C)NC(C)(C)C1 [Compound 682, 6-(5-chloro-2-methyl-2H-1,2,3-triazol-4-yl)-2-(6-(methyl(2,2,6,6-tetramethylpiperidin-4-yl)amino)pyridazin-3-yl)-1-oxoisoindoline-4-carbonitrile]	77%	17%	–
COc1cc(-c2nn(C)nc2C)cc2c1CN(c1ccc(N(C)C3CC(C)(C)NC(C)(C)C3)nn1)C2=O [Compound 683, 6-(2,5-dimethyl-2H-1,2,3-triazol-4-yl)-4-methoxy-2-(6-(methyl(2,2,6,6-tetramethylpiperidin-4-yl)amino)pyridazin-3-yl)isoindolin-1-one]	138%	26%	–
COc1cc(-c2nn(C)nc2Cl)cc2c1CN(c1ccc(O[C@H]3C[C@]4(C)CC[C@](C)(C3)N4)nn1)C2=O [Compound 684, 6-(5-chloro-2-methyl-2H-1,2,3-triazol-4-yl)-2-(6-(((1R,3s,5S)-1,5-dimethyl-8-azabicyclo[3.2.1]octan-3-yl)oxy)pyridazin-3-yl)-4-methoxyisoindolin-1-one]	133%	24%	–
CN(c1ccc(N2Cc3c(C#N)cc(-c4nn(C)nc4Cl)cc3C2=O)nn1)C1C[C@]2(C)CC[C@](C)(C1)N2 (stereo partly drawn) [Compound 685, 6-(5-chloro-2-methyl-2H-1,2,3-triazol-4-yl)-2-(6-(((1R,5S)-1,5-dimethyl-8-azabicyclo[3.2.1]octan-3-yl)(methyl)amino)pyridazin-3-yl)-1-oxoisoindoline-4-carbonitrile]	24%	20%	–
COc1cc(-c2nn(C)nc2Cl)cc2c1CN(c1ccc(N(C)[C@H]3C[C@]4(C)CC[C@](C)(C3)N4)nn1)C2=O [Compound 686, 6-(5-chloro-2-methyl-2H-1,2,3-triazol-4-yl)-2-(6-(((1R,3s,5S)-1,5-dimethyl-8-azabicyclo[3.2.1]octan-3-yl)(methyl)amino)pyridazin-3-yl)-4-methoxyisoindolin-1-one]	109%	26%	–
COc1cc(-c2nn(C)nc2C)cc2c1CN(c1ccc(N(C)[C@H]3C[C@]4(C)CC[C@](C)(C3)N4)nn1)C2=O [Compound 687, 6-(2,5-dimethyl-2H-1,2,3-triazol-4-yl)-2-(6-(((1R,3s,5S)-1,5-dimethyl-8-azabicyclo[3.2.1]octan-3-yl)(methyl)amino)pyridazin-3-yl)-4-methoxyisoindolin-1-one]	110%	19%	–
COc1cc(-c2nn(C)nc2C)cc2c1CN(c1ccc(OC3CC(C)(C)NC(C)(C)C3)nn1)C2=O [Compound 688, 6-(2,5-dimethyl-2H-1,2,3-triazol-4-yl)-4-methoxy-2-(6-((2,2,6,6-tetramethylpiperidin-4-yl)oxy)pyridazin-3-yl)isoindolin-1-one]	123%	86%	–
CN(c1ccc(N2Cc3c(O)cc(-c4nn(C)nc4Cl)cc3C2=O)nn1)[C@H]1C[C@]2(C)CC[C@](C)(C1)N2 [Compound 689, 6-(5-chloro-2-methyl-2H-1,2,3-triazol-4-yl)-2-(6-(((1R,3s,5S)-1,5-dimethyl-8-azabicyclo[3.2.1]octan-3-yl)(methyl)amino)pyridazin-3-yl)-4-hydroxyisoindolin-1-one]	88%	27%	–
CN(c1ccc(N2Cc3c(C#N)cc(-c4nnn(C)n4)cc3C2=O)nn1)[C@H]1C[C@]2(C)CC[C@](C)(C1)N2 [Compound 693, 2-(6-(((1R,3s,5S)-1,5-dimethyl-8-azabicyclo[3.2.1]octan-3-yl)(methyl)amino)pyridazin-3-yl)-6-(2-methyl-2H-tetrazol-5-yl)-1-oxoisoindoline-4-carbonitrile]	94%	40%	–
Cc1cn(-c2cc(C#N)c3c(c2)C(=O)N(c2ccc(N(C)[C@H]4C[C@]5(C)CC[C@](C)(C4)N5)nn2)C3)nn1 [Compound 695, 2-(6-(((1R,3s,5S)-1,5-dimethyl-8-azabicyclo[3.2.1]octan-3-yl)(methyl)amino)pyridazin-3-yl)-6-(4-methyl-1H-1,2,3-triazol-1-yl)-1-oxoisoindoline-4-carbonitrile]	–	–	EC50 (MSH3; EC50 of MSH3 downregulation, XtalPi): 11100 nM
